Values quoted from earlier work as cited in patent publication US20160354391A1, “USE IN SINGLE PILL/TABLET/CAPSULE OF MINOCYCLINE, FLUCONAZOLE AND ATORVASTATIN IN THE TREATMENT OF MULTIPLE SCLEROSIS” (priority 2014, published 2016).

What was measured:
[1] = in vivo

Compound | elimination time [1] | patients who develop thyroid autoimmune diseases
C/C(O)=C(\C#N)C(=O)Nc1ccc(C(F)(F)F)cc1 [Teriflunomide] | up to 2 years | –
Alemtuzumab | – | approximately 40%
